Test results: US7687522B2, “Substituted pyridines and pyrimidines and their use in treatment of cancer” (Amgen Inc., priority 2006, dated 2010)
Each block holds one compound with its values, some of them ahead of it.

Molecular target: T1, c-Met (Homo sapiens, UniProt P08581)
T1 construct: A PCR product covering residues 1058-1365 of c-Met (c-Met kinase domain) is generated; made in house; host or cells: baculovirus-infected (insect) cells
Assay: c-Met receptor assay (HTRF kinase assay with GST-cMet (P) enzyme, gastrin substrate)
Assay type: biochemical
Description: A PCR product covering residues 1058-1365 of c-Met (c-Met kinase domain) is generated as described in WO 06/116,713 the entirety of which is incorporated herein by reference.
Baculovirus cells are broken in 5× (volume/weight) of Lysis Buffer (50 mM HEPES, pH 8.0, 0.25 M NaCl, 5 mM mercaptoethanol, 10% glycerol plus Complete Protease Inhibitors (Roche (#10019600), 1 tablet per 50 mL buffer). The lysed cell suspension is centrifuged at 100,000×g (29,300 rpm) in a Beckman ultracentrifuge Ti45 rotor for 1 h. The supernatant is incubated with 10 ml of Glutathione Sepharose 4B from Amersham Biosciences (#27-4574-01). Incubation is carried out overnight in a cold room (approximately 8° C.). The resin and supernatant is poured into an appropriately sized disposable column and the flow through supernatant was collected. The resin is washed with 10 column volumes (100 mL) of Lysis Buffer. The GST-cMET is eluted with 45 mL of 10 mM Glutathione (Sigma #G-4251) in Lysis Buffer. The elution is collected as 15 mL fractions. Aliquots of the elution fractions are run on SDS PAGE (12% Tris Glycine gel, Invitrogen, #EC6005BOX). The gel is stained with 0.25% Coomassie Blue stain. Fractions with GST-cMET are concentrated with a Vivaspin 20 mL Concentrator (#VS2002; […]) to a final volume less than 2.0 ml. The concentrated GST-cMET solution is applied to a Superdex 75 16/60 column (Amersham Biosciences # 17-1068-01) equilibrated with 25 mM Tris, pH 7.5, 100 mM NaCl, 10 mM mercaptoethanol, 10% glycerol. The GST-cMET is eluted with an isocratic run of the above buffer, with the eluent collected in 1.0 mL fractions. Fractions with significant OD280 readings are run on another 12% Tris Glycine gel. The peak tubes with GST-cMET are pooled and the OD280 is read with the column buffer listed above as the blank buffer.
Phosphorylation of the purified GST-cMET is performed by incubating the protein for 3 h at RT with the following:
After incubation, the solution is concentrated in a Vivaspin 20 mL Concentrator to a volume less than 2.00 mL. The solution is applied to the same Superdex 75 16/60 column used above after re-equilibration. The GST-cMET is eluted as described above. The elution fractions corresponding to the first eluted peak on the chromatogram are run on a 12% Tris Glycine gel, as above, to identify the fractions with GST-cMET. Fractions are pooled and the OD280 is read with the column buffer used as the blank.
A Kinase reaction Buffer is prepared as follows:
When the assay is carried out, freshly add:
The HTRF buffer contains: 50 mM Tris-HCl (pH 7.5), 100 mM NaCl, 0.1% BSA, 0.05% Tween 20.5 mM EDTA Fresh add SA-APC (PJ25S Phycolink Streptavidin-Allophycocyanin Conjugate, Prozyme Inc.) and Eu-PT66 (Eu-W1024 labeled anti-phosphorotyrosine antibody PT66, AD0069, Lot 168465, Perkin-Elmer Inc.) to reach the final concentration: • 0.1 nM final Eu-PT66 • 11 nM final SA-APC Methods: 1. Dilute GST-cMet (P) enzyme in kinase buffer as follows: Prepare 8 nM GST-cMet (P) working solution (7.32 μM to 8 nM, 915 X, 10 μL to 9.15 mL). In a 96 well clear plate [Costar # 3365] add 100 μL in eleven columns, in one column add 100 μL kinase reaction buffer alone. 2. Assay plate preparation: Use Biomek FX to transfer 10 μL 8 nM GST-cMet (P) enzyme, 48.4 μL kinase reaction buffer, 1.6 μL compound (in DMSO) (Start concentration at 10 mM, 1 mM and 0.1 mM, sequential dilution 1:3 to reach 10 test points) in a 96 well costar clear plate [Costar # 3365], mix several times. Then incubate the plate at RT for 30 min. 3. Prepare Gastrin and ATP working solution in kinase reaction buffer as follows: Prepare 4 μM Gastrin and 16 μM ATP working solution
Use Biomek FX to add 20 μl ATP and Gastrin working solution to the assay plate to start reaction, incubate the plate at RT for 1 h. 4. Transfer 5 μL reaction product at the end of 1 h into 80 μL HTRF buffer in black plate [Costar # 3356], read on Discover after 30 min incubation.

T1 sequence (P08581 1058-1365): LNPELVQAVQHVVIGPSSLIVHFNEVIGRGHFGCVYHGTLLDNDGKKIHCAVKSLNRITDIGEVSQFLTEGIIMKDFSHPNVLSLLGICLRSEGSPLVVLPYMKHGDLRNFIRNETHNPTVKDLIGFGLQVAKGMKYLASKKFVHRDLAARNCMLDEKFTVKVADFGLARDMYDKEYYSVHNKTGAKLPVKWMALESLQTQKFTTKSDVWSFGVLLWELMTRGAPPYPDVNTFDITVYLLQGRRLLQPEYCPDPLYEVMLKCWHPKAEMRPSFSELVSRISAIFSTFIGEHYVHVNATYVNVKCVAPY

SMILES: Cc1noc(-c2cccc(Nc3nccc(Oc4ccc(-c5cnc(Cc6ccccc6)n(C)c5=O)cc4F)n3)c2)n1 [Example 13, 2-benzyl-5-(3-fluoro-4-(2-(3-(3-methyl-1,2,4-oxadiazol-5-yl)phenylamino)pyrimidin-4-yloxy)phenyl)-3-methylpyrimidin-4(3H)-one]
Ki: > 20 µM

SMILES: Cn1c(Nc2ccccc2F)ncc(-c2ccc(Oc3ccnc(NC(=S)N4CCCC4)c3)cn2)c1=O [Example 3, N-(4-(6-(2-(2-fluorophenylamino)-1-methyl-6-oxo-1,6-dihydropyrimidin-5-yl)pyridin-3-yloxy)pyridin-2-yl)pyrrolidine-1-carbothioamide]
Ki: 0.11 µM

SMILES: CN1CCN(C(=O)Nc2cc(Oc3ccc(-c4cnc(Nc5ccccc5)n(C)c4=O)nc3)ccn2)CC1 [Example 7, 4-methyl-N-(4-(6-(1-methyl-6-oxo-2-(phenylamino)-1,6-dihydropyrimidin-5-yl)pyridin-3-yloxy)pyridin-2-yl)piperazine-1-carboxamide]
Ki: 0.087 µM

SMILES: Cn1c(Nc2ccccc2)ncc(-c2ccc(Oc3ccnc(NC(=O)N4CCOCC4)c3)cn2)c1=O [Example 6, N-(4-(6-(1-methyl-6-oxo-2-(phenylamino)-1,6-dihydropyrimidin-5-yl)pyridin-3-yloxy)pyridin-2-yl)morpholine-4-carboxamide]
Ki: 0.057 µM

SMILES: Cn1c(Nc2ccc(F)cc2)ncc(-c2ccc(Oc3ccnc(NC(=O)N4CCCC4)c3)cn2)c1=O [Example 10, N-(4-(6-(2-(4-fluorophenylamino)-1-methyl-6-oxo-1,6-dihydropyrimidin-5-yl)pyridin-3-yloxy)pyridin-2-yl)pyrrolidine-1-carboxamide]
Ki: 0.006 µM

SMILES: Cn1c(Nc2ccccc2)ncc(-c2ccc(Oc3ccnc(NC(=O)N4CCCC4)c3)cn2)c1=O [Example 1, N-(4-(6-(1-methyl-6-oxo-2-(phenylamino)-1,6-dihydropyrimidin-5-yl)pyridin-3-yloxy)pyridin-2-yl)pyrrolidine-1-carboxamide]
Ki: 0.011 µM

SMILES: CNc1nccc(Oc2ccc(-c3cnc(Cc4ccccc4)n(C)c3=O)cc2F)n1 [Example 14, 2-benzyl-5-(3-fluoro-4-(2-(methylamino)pyrimidin-4-yloxy)phenyl)-3-methylpyrimidin-4(3H)-one]
Ki: 2.34 µM

More lines, now with the values ahead:

Ki: 0.03 µM
SMILES: Cn1c(Nc2cccc(F)c2)ncc(-c2ccc(Oc3ccnc(NC(=S)N4CCCC4)c3)cn2)c1=O [Example 26, N-(4-(6-(2-(3-fluorophenylamino)-1-methyl-6-oxo-1,6-dihydropyrimidin-5-yl)pyridin-3-yloxy)pyridin-2-yl)pyrrolidine-1-carbothioamide]

Ki: 0.012 µM
SMILES: CCn1c(Nc2ccc(F)cc2)ncc(-c2ccc(Oc3ccnc(NC(=O)N4CCC4)c3)c(F)c2)c1=O [Example 21, N-(4-(4-(1-ethyl-2-(4-fluorophenylamino)-6-oxo-1,6-dihydropyrimidin-5-yl)-2-fluorophenoxy)pyridin-2-yl)azetidine-1-carboxamide]

Ki: 0.011 µM
SMILES: Cn1c(Nc2cccc(F)c2)ncc(-c2ccc(Oc3ccnc(NC(=O)N4CCCC4)c3)cn2)c1=O [Example 25, N-(4-(6-(2-(3-fluorophenylamino)-1-methyl-6-oxo-1,6-dihydropyrimidin-5-yl)pyridin-3-yloxy)pyridin-2-yl)pyrrolidine-1-carboxamide]
